{"source": "paper PMC9268428", "about": "“Determination of the Highly Sensitive Carboxyl-Graphene Oxide-Based Planar Optical Waveguide Localized Surface Plasmon Resonance Biosensor” (Nanomaterials, 2022)", "molecular_target": "T1, streptavidin (Streptomyces avidinii, UniProt P22629)", "T1 construct": "free analyte in PBS", "T1 sequence (P22629 25-183)": "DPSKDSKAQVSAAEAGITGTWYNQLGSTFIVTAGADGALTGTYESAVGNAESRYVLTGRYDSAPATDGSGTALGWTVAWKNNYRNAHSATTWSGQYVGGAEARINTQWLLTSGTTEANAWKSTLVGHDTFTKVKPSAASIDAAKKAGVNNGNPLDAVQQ", "assay": "localized surface plasmon resonance on graphene-oxide optical waveguide, affinity constant from ka/kd", "type": "binding", "conditions": "read-out: Kf (converted)", "excerpt": "localized surface plasmon resonance on graphene-oxide optical waveguide, affinity constant from ka/kd on streptavidin | ka and kd of biotin binding with streptavidin were estimated to be", "note": "Structures can show the parent of a compound that is named as a salt."}
{"smiles": "NCCCNC(=O)CCCC[C@@H]1SC[C@@H]2NC(=O)N[C@@H]21", "note": "[N-(+)-biotinyl-3-aminopropylammonium trifluoroacetate]", "values": [{"measurement": "Kd", "value": 0.137, "unit": "nM"}]}
